In the supplement of paper PMC10307832 one finds relative viability data, which are given here for one cell line.

Common to all, as to experiment: relative viability (nuclei count vs DMSO), 5 days (fraction); higher = more cells survive
Compound in experiment [1]: Cc1ccc(NC(=O)c2ccc(CN3CCN(C)CC3)cc2)cc1Nc1nc(-c2cccnc2)cs1 [Masitinib] + CS(=O)(=O)CCNCc1ccc(-c2ccc3ncnc(Nc4ccc(OCc5cccc(F)c5)c(Cl)c4)c3c2)o1 [Lapatinib] (partner 2 µM)
An outline of the steps:
(§1)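 Values are medians from duplicate plates. Each reflects relative viability, defined as the nuclei count of treated wells over that of vehicle wells. Lung cancer cell lines in 1536-well plates were pin-tool dosed one day after seeding with one drug alone or with a fixed anchor-drug dose plus five library-drug doses (not always all listed) in √10 steps, then fixed, stained and imaged at 4× after 5 days.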

Compound in experiment [2]: Cc1ccc(NC(=O)c2ccc(CN3CCN(C)CC3)cc2)cc1Nc1nc(-c2cccnc2)cs1 [Masitinib] + O=C(CCCCCCC(=O)Nc1ccccc1)NO [Vorinostat] (partner 1 µM)
An outline of the steps: as §1

Compound in experiment [3]: Cc1ccc(NC(=O)c2ccc(CN3CCN(C)CC3)cc2)cc1Nc1nc(-c2cccnc2)cs1 [Masitinib] + COc1cc2c(Oc3ccc(NC(=O)C4(C(=O)Nc5ccc(F)cc5)CC4)cc3F)ccnc2cc1OCCCN1CCOCC1 [Foretinib] (partner 0.25 µM)
An outline of the steps: as §1

Compound in experiment [4]: CC1=CC(=CC=C1)NC2=NC(=CS2)C3=CC=NC=C3 + CS(=O)(=O)N1CCN(Cc2cc3nc(-c4cccc5[nH]ncc45)nc(N4CCOCC4)c3s2)CC1 [Pictilisib] (partner 1 µM)
A digest of the protocol:
as §1

As to UMC-11, the relative viability in experiment [1] (first compound 0.01 µM) is 0.82; in experiment [1] (first compound 0.03162 µM), 0.914; in experiment [1] (first compound 0.1 µM), 0.979; in experiment [1] (first compound 0.3162 µM), 1.06; in experiment [1] (first compound 1 µM) it was 1.05; in experiment [2] (first compound 0.01 µM) it was 0.314. The relative viability was 0.342 in experiment [2] (first compound 0.03162 µM); 0.375 in experiment [2] (first compound 0.1 µM); 0.366 in experiment [2] (first compound 0.3162 µM); 0.359 in experiment [2] (first compound 1 µM); 0.951 in experiment [3] (first compound 0.03162 µM); 1.12 in experiment [3] (first compound 0.1 µM). Further, the relative viability worked out at 1.17 in experiment [3] (first compound 0.3162 µM); 1.15 in experiment [3] (first compound 1 µM); 0.757 in experiment [4] (first compound 0.08 µM); 0.746 in experiment [4] (first compound 0.253 µM); 0.729 in experiment [4] (first compound 0.8 µM); 0.761 in experiment [4] (first compound 2.53 µM). Also, the relative viability in experiment [4] (first compound 8 µM) amounted to 0.824.
